The values that follow come from patent US20170096636A1, “METHODS AND COMPOUNDS FOR PHOTOTHERAPY WITH CHALCOGENORHODAMINE PHOTOSENSITIZERS” (Wake Forest University Health Sciences, priority 2014, published 2017).

What is called log P is the decadic logarithm of the partition coefficient of the neutral form, usually between octanol and water. Lower therefore signals a more hydrophilic compound. For orientation: melting point means the temperature, or range, at which the solid turns liquid. A word on the logP: it is the decadic logarithm of the partition coefficient of the neutral form, usually between octanol and water. A high value points to a more lipophilic compound.

“Also recorded” adds a separate entry of the source.

For data set [1], the system named is cytochrome c oxidase. As to conditions: whole cells, irradiation; cited from earlier work.
For data set [2], the system named is resting T cells. The data set can be described thus: Dark toxicity: bioenergetics (O2 consumption rate) of resting T cells. As to conditions: 5.0×10^−7 M.
Data set [3] concerns HUT-78 cells. The experiment in a line: Cellular uptake and extrusion of photosensitizer (flow cytometry MFI). Format: cell-based. As to conditions: ±SE; for Uptake MFI: 2.5 × 10^−7 M photosensitizer, 20 minutes exposure; for % Extrusion: percent change in MFI after 18 hour extrusion period, 2.5 × 10^−7 M. As for the experimental part: Cellular Uptake and Extrusion of Chalcogenorhodamine Photosensitizers. […] Cellular uptake of the chalcogenorhodamine photosensitizers was measured after a 20 minute exposure to 2.5×10^−7 M photosensitizer in malignant T cells (HUT-78 cells, Table 2). Transmembrane movement of the photosensitizers in the secretory direction (basolateral to apical) was measured after an 18-h extrusion period. As described above, the Se-containing molecules fluoresced at a lower intensity relative to the S-containing molecules. […] Overall, the PF6^− salts were more slowly extruded from cells relative to the chloride salts of the amide, with a greater difference in the extrusion kinetics noted between the thiorhodamine PF6 salts compared to the selenorhodamine chloride salts.
A general note: A flow cytometer gives signals particle by particle.

The conditions of data set [4]: n-octanol / PBS pH 7.4, shake flask.
Data set [5] can be described thus: physchem. As to conditions: n-octanol/phosphate buffered saline, pH 7.4.
The conditions of data set [6]: reference value; cited from earlier work.
Data set [7] deals with PBMCs. In kind it is cell-based. As to conditions: SEB 50 ng/mL 72 hours, CFSE.
A short description of data set [8]: Fluorescence quantum yield in MeOH. As to conditions: quantum yield for fluorescence in MeOH. Format: physicochemical.
Data set [9] concerns activated T cells (CD25+). The data set can be described thus: PD of activated T cells after SEB stimulation: bioenergetics and survival. In kind it is cell-based. The note with it: 5×10^−8 M, 5 J/cm^2. As for the experimental part:
To evaluate the differential effects of PD on bioenergetics of activated and resting T cells, immunomagnetically-selected CD25^+ and CD25^− T cells were isolated (>95% purity) after SEB stimulation. PD was then performed, and bioenergetics were measured within 1 hour. The percent of basal OCR devoted to ATP production was determined by comparing basal OCR to baseline OCR (after oligomycin injection). […] Upon exposure to light, the higher concentration of 2-Se—Cl selectively disrupted OXPHOS in activated T cells. To determine whether the selective impedance of basal ATP production affected cell survival, we performed FACS analysis 18 hours after PD (FIG. 5C).

Data set [10] in a line: Quantum yield for generation of singlet oxygen, time-resolved 1O2 phosphorescence. The note with it: air-saturated MeOH, TMR-Se as reference. Format: physicochemical.
The subject of data set [11] is immunomagnetically-selected CD3+ cells. The experiment in a line: Phototoxicity: cell survival by FACS (Annexin 5/7AAD) 18 hours after PD. In kind it is cell-based. As to conditions: 5.0×10^−8 M, 5 J/cm^2 light, FACS 18 hours after PD. An excerpt: (§1) Selective phototoxicity of Chalcogenorhodamine Photosensitizers. Based on the rapid extrusion kinetics and low potential for toxicity in resting cells, we selected four amide-containing half-julolidine analogues for further analysis (2-S—Cl, 2-Se—Cl, 4-S—Cl, and 4-Se—Cl). These photosensitizers are associated with high singlet oxygen quantum yields (Table I). As a result, very low concentrations of these agents are required for phototherapy. For all PD experiments, immunomagnetically-selected CD3^+ cells were suspended in a photosensitizer-rich media of 5.0×10^−8 M for 20 minutes followed by 30 minutes in a photosensitizer-free media. Cells were then exposed to 5 J/cm^2 of light followed by real-time measurement of OCR and ECAR. […] We next evaluated the effects of PD on cell survival. For these experiments, FACS analysis was performed 18 hours after PD. Cell survival was identified by failure to bind Annexin 5 and 7AAD, and percent survival was calculated as the difference in the absolute number of cells between PD and control (non-PD samples) samples.

Data set [12] has the same test system. The data set can be described thus: Phototoxicity: photodepletion (PD) of CD3+ cells, real-time OCR. The note with it: 5.0×10^−8 M 20 minutes, 30 minutes photosensitizer-free, 5 J/cm^2 light. In kind it is cell-based.
Text: as §1

Data set [13] deals with resting T cells (CD25−).
Data set [14] relates to MDCK-MDR1 cells. As to conditions: cited from earlier work.
The target in data set [15] is P-gp (Homo sapiens, UniProt P08183). As to conditions: cited from earlier work.
Chain of P-gp (P08183 whole entry): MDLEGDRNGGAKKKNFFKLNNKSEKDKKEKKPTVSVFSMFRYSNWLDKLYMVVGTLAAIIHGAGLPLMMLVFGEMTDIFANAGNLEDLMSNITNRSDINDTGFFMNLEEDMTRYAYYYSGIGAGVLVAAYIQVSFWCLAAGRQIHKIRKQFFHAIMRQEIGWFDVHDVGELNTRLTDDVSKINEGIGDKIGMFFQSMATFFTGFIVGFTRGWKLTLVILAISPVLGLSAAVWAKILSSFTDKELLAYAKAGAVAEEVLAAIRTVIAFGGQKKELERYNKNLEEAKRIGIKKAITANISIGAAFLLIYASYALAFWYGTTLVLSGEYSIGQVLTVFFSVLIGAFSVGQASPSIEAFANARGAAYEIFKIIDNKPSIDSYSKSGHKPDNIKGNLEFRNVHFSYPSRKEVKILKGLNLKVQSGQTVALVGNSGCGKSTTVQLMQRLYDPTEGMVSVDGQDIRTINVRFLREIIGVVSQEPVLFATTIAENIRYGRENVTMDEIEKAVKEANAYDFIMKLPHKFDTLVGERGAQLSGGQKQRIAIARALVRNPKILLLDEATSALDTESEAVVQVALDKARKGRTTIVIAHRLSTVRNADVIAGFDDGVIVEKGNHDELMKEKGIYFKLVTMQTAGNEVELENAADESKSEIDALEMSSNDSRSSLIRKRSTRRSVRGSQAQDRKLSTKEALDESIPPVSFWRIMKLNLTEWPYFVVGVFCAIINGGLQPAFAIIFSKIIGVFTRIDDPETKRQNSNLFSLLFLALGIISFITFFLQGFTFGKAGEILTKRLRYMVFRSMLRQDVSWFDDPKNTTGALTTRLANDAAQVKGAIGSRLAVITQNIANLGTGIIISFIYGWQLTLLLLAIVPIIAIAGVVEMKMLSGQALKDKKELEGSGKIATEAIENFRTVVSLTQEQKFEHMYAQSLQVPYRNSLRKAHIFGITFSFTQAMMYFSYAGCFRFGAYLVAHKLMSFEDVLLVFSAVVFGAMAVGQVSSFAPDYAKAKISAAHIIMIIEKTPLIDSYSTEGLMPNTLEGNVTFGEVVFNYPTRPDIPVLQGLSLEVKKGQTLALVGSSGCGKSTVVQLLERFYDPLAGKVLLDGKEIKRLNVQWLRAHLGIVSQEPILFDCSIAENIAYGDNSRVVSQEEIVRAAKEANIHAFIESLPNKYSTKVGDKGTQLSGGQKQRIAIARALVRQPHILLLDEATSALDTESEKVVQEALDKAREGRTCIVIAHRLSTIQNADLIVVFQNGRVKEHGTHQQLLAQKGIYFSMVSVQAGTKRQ

Regarding `CN(C)c1ccc2c(-c3ccccc3)c3ccc(=[N+](C)C)cc-3sc2c1.[Cl-]` [TMR-S], the “cytochrome c oxidase activity in irradiated treated cells” value in data set [1] is “light fluence-dependent inhibition of cytochrome c oxidase activity”.
As to `CCN(CC)C(=O)c1ccc(-c2c3ccc(N(C)C)cc3[s+]c3c4c5c(cc23)CCCN5CCC4)s1.[Cl-]` [8-S—Cl], the dark toxicity result in data set [2] was “not associated with any significant dark toxicity”. In addition, in data set [3], the “Uptake MFI” value stood at 114750 and the “% Extrusion” value was 78.55 (±2.35) %. The “log P” value in data set [4] was 2.65 ± 0.02.
For the molecule `CCN(CC)C(=O)c1ccc(-c2c3ccc(N(C)C)cc3[se+]c3c4c5c(cc23)CCCN5CCC4)s1.[Cl-]` [8-Se—Cl, 12-(Dimethylamino)-2,3,6,7-tetrahydro-9-(5-(diethylcarbamoyl)-thiophen-2-yl)-1H,5H-selenoxantheno[2,3,4-ij]quinolizin-14-ium Chloride], the melting point lay in the range of 150 to 152 °C. Besides, in data set [3], the “Uptake MFI” value worked out at 19365 and the “% Extrusion” value was 83.05 (±1.78) %. This molecule registered a logP in data set [5] of 2.87 ± 0.01.
For the molecule `CN(C)c1ccc2c(-c3ccccc3)c3ccc(=[N+](C)C)cc-3[se]c2c1.[Cl-]` [TMR-Se], in data set [1], the “cytochrome c oxidase activity in irradiated treated cells” value is “light fluence-dependent inhibition of cytochrome c oxidase activity”. The “Φ(^1O2) of reference” value in data set [6] was 0.87.
Consider `CN1CCC(C)(C)c2cc3c(-c4ccc(C(=O)N5CCCCC5)s4)c4ccc(=[N+](C)C)cc-4[se]c3cc21.[Cl-]` [2-Se—Cl, N-methyl-N-(1,4,4-trimethyl-6-(5-(piperidine-1-carbonyl)thiophen-2-yl)-3,4-dihydro-1H-selenochromeno[3,2-g]quinolin-9(2H)-ylidene)methanaminium Chloride], for which, in data set [2], the dark toxicity entry is reported as “not associated with any significant dark toxicity; also recorded: minimal toxicity”. Also, in data set [7] (challenge with TSST-1, 6 days), the “response to TSST-1 after PD” value is “a robust response was observed”. Also, the “proliferation in response to SEB after PD” value in [7] (rechallenge with SEB, 6 days) was “no proliferation occurred”. Moreover, in [8], the “ΦF, MeOH” value is listed as 0.009 ± 0.001. Moreover, in [3], the “Uptake MFI” value is 6536 and the “% Extrusion” value is 92.17 (±1.09) %. Also, the “activated T cells eliminated from culture” value in [9] (FACS 18 hours after PD) is listed as “Greater than 90%”. In [9] (activated T cells), the “aerobic glycolysis after PD” value is “not affecting aerobic glycolysis of either population”. Besides, in [9] (activated T cells, within 1 hour), the “OXPHOS associated ATP production after PD” value is listed as “significantly impeded”. Further, the “log P” value in data set [4] turned out to be 2.23 ± 0.04. Besides, the “Φ(^1O2), MeOH” value in data set [10] is 0.48±0.03. The “cell death after PD” value in data set [11] is “minimal cell death”. Moreover, the “effect of PD on basal OCR” value in [12] is “did not significantly impede the basal OCR”. In addition, in data set [13], the “aerobic glycolysis after PD” value is “not affecting aerobic glycolysis of either population” and the “cell death in resting T cell population” value is recorded as “minimal to no cell death”.
Take `CCN(CC)C(=O)c1ccc(-c2c3ccc(=[N+](C)C)cc-3[se]c3cc4c(cc23)C(C)(C)CCN4C)s1.[Cl-]` [4-Se—Cl, N-(6-(5-(diethylcarbamoyl)thiophen-2-yl)-1,4,4-trimethyl-3,4-dihydro-1H-selenochromeno-[3,2-g]quinolin-9(2H)-ylidene)-N-methylmethanaminium Chloride]: the “ΦF, MeOH” value in data set [8] was determined as 0.009 ± 0.001. In data set [3], the “Uptake MFI” value is 5209 and the “% Extrusion” value is 92.24 (±0.69) %. Moreover, in [4], the “log P” value was found to be 2.26 ± 0.04. Moreover, the “Φ(^1O2), MeOH” value in [10] stood at 0.50 ± 0.03. For the same molecule, in data set [11], the “cell death after PD” value is listed as “minimal cell death”. Moreover, the “effect of PD on basal OCR” value in data set [12] is “did not significantly impede the basal OCR”.
As for `CN1CCC(C)(C)c2cc3c(-c4ccc(C(=O)N5CCCCC5)s4)c4ccc(=[N+](C)C)cc-4sc3cc21.[Cl-]` [2-S—Cl], the “ΦF, MeOH” value in data set [8] is 0.09 ± 0.01. Further, in data set [3], the “Uptake MFI” value was 50993 and the “% Extrusion” value is given as 92.70 (±0.74) %. The “log P” value in [4] was found to be 2.26 ± 0.04. For the same molecule, in [11], the “cell death after PD” value is “Significant cell death”.
For the molecule `CCN(CC)C(=O)c1ccc(-c2c3ccc(=[N+](C)C)cc-3sc3cc4c(cc23)C(C)(C)CCN4C)s1.[Cl-]` [4-S—Cl], the dark toxicity result in data set [2] is reported as “not associated with any significant dark toxicity”. Further, the “ΦF, MeOH” value in [8] is given as 0.09 ± 0.01. Further, in data set [3], the “Uptake MFI” value came out at 64332 and the “% Extrusion” value is listed as 92.08 (±0.49) %. In addition, in data set [4], the “log P” value worked out at 2.16 ± 0.02. Also, the “cell death after PD” value in [11] was “Significant cell death”.
In the case of `CCN(CC)C(=O)c1ccc(-c2c3ccc(N(C)C)cc3[s+]c3c4c5c(cc23)CCCN5CCC4)s1.F[P-](F)(F)(F)(F)F` [8-S—PF6], in [3], the “Uptake MFI” value amounted to 128000 and the “% Extrusion” value is on record as 79.40 (±1.56) %. In addition, the PBA in data set [14] is 210 nm/s. Further, the “log P” value in [4] is on record as 1.4. For the same molecule, the “effect on ATPase activity in P-gp” value in data set [15] was “stimulate ATPase activity”.
